# Values quoted from earlier work in patent US8334298B2, “Treatment or prevention of ovarian hyperstimulation syndrome (OHSS) using a dopamine agonist” (Ferring International Center S.A., priority 2005, dated 2012).
# Conditions: oncolytic models; cited from earlier work
structure (smiles),measurement,value
Cc1cc(C)c(/C=C2\C(=O)Nc3ccccc32)[nH]1 [SU5416],toxic effects,serious toxic effects
